From US10494402B2, “Peptides that stimulate subcutaneous adipogenesis” (The Regents of the University of California, priority 2012, dated 2019)

Key:
[1] = tested on: rat mesenchymal stem cells; experiment: Adipogenesis Assay 2 (dexamethasone/insulin/indomethacin induction, then peptide; Oil Red O or BODIPY); type: cell-based; details: for adipogenic activity of pentamers / adipogenic activity relative to KSEVSK hexamer: FIG. 35, groups labelled A2-, doses 1, 5, 25 μg, absorbance at 520 nm; for adipogenic activity, Oil Red O, fold change relative to negative control / Fold adipogenic induction vs. negative control / Specific activity (activity/1000 daltons): Assay 2; for adipogenic activity, Oil Red O, fold change relative to negative control: 0.5, 5, and 50 μg/ml over 3 weeks
Protocol: Reagents: The dexamethasone, insulin, and Oil Red O solutions were the same as described above for assay 1. Indomethacin Solution contained 10 mM indomethacin in methanol. The BODIPY 493/503 dye was used at a concentration of 4 μM.
Adipogenesis Maintenance Media was prepared as described above.
Adipogenesis Induction Media: To prepare 501 mL of Adipogenesis Induction Media, 50 μL of the 10 mM stock solution of dexamethasone, 500 μL of the 10 mg/ml stock solution of insulin, 5 ml of a 10 mM stock solution of indomethacin, and 5 mL of a 100× stock solution of penicillin and streptomycin were added to 490 mL of mesenchymal stem cell expansion media.
Pre-adipocyte stem cells, bone marrow mesenchymal stem cells and fibroblasts such as dermal reticular and papillary fibroblasts were propagated using standard tissue culture methods. Cells were trypsinized to remove cells from the substratum, the trypsin was neutralized, and cells were counted using a hemocytometer. Cells were resuspended at 60,000 cells/ml in low glucose DMEM containing 10% calf serum. 1 mL of cell suspension per well was plated in a 24-well plate, with several wells left empty for blank well staining.
(§1) Cells were incubated overnight and had reached confluency at this point. Approximately 1.8 ml of media was removed from each well and replaced with 2 ml Adipogenesis Induction Media. For negative control wells, expansion medium only was used at this step and for subsequent media changes. For all media changes, media was replaced as gently as possible to avoid disturbing the monolayer.
Media was removed and replaced with 2 ml of maintenance medium containing either RHAMM antagonist peptides (experimental group) or insulin (concentration as in the induction medium used as positive control). […]
Media was removed and BODIPY or Oil Red O staining was performed as described above for assay 1.
As described above in Example 1, two different adipogenesis assays were used herein to assess the adipogenic effects of the peptides in rat mesenchymal stem cells. Assay 1 is an assay that is typically used to promote transdifferentiation of fibroblasts into adipocytes, whereas Assay 2 is typically used to promote differentiation of multi-potential mesenchymal progenitor cells into adipocytes. Immortalized rat bone marrow mesenchymal stem cells were used for both assays. These cells contain cells of different lineages, including fibroblasts, pre-adipocytes, pre-chondrocytes and pre-osteoblasts. Thus, Assay 1 was used to promote transdifferentiation of the fibroblast lineages into adipocytes and Assay 2 was used to promote differentiation of the pre-adipocytes into adipocytes.
As described in Example 1 above, the priming stimulus for Assay 1 includes IBMX (3-isobutyl-1-methylxanthine) and dexamethasone, and then insulin as the final adipogenic stimulus. The priming stimulus for assay 2 includes IBMX, dexamethasone and indomethacin, and then insulin as the final adipogenic stimulus.

[2] = tested on: rat mesenchymal stem cells; experiment: Adipogenesis Assay 1 (IBMX/dexamethasone priming, peptide replaces insulin; Oil Red O or BODIPY); type: cell-based; details: for adipogenic activity, Oil Red O, fold change relative to negative control / Fold adipogenic induction vs. negative control / Specific activity (activity/1000 daltons): Assay 1; for adipogenic activity, Oil Red O, fold change relative to negative control: 0.5, 5, and 50 μg/ml over 3 weeks; for adipogenic activity of truncation fragments: truncation experiments, assays 1 and 2, FIGS. 7, 8, 9
Protocol: Reagents: (1) 3-isobutyl-1-methylxanthine (IBMX) solution: 0.5M in DMSO; (2) Insulin solution: 10 mg/mL recombinant human insulin; (3) Dexamethasone solution in 10 mM in ethanol; (4) Oil Red O (0.36% in 60% isopropanol) or BODIPY dye (BODIPY 493/503 (4,4-difluoro-1,3,5,7-tetramethyl-4-bora-3a,4a-diaza-s-indacene-8-propionic acid, succinimidyl ester) from Invitrogen at 4-10 μM).
Adipogenesis Initiation Media: mesenchymal stem cell expansion media/0.5 mM IBMX/1 μM dexamethasone. Mesenchymal stem cell expansion media is commercially available from Millipore. The IBMX Solution was diluted 1:1000 and the Dexamethasone Solution was diluted 1:10,000 in expansion media containing antibiotics and antimycotics. The prepared media was stored at 4° C.
Adipogenesis Progression Media for positive control: mesenchymal stem cell expansion media/10 μg/mL insulin. The Insulin Solution was diluted 1:1000 in the expansion media and stored at 4° C.
Experimental Adipogenesis Progression Media: mesenchymal stem cell expansion media/1-100 μg/mL RHAMM antagonist peptides.
Adipogenesis Maintenance Media: mesenchymal stem cell expansion media containing antibiotics and antimycotics.
Negative Control Media: DMEM/10% normal calf serum.
Pre-adipocyte stem cells including bone marrow mesenchymal stem cells and fibroblasts including reticular and papillary dermal fibroblasts were propagated using standard tissue culture methods. Cells were trypsinized to remove the cells from the substratum. The trypsin was neutralized and cells were counted using a hemocytometer. Cells were resuspended at 30,000 cells/mL in expansion media. […] of cell suspension was plated per well of 24-well plate, with several wells left empty for blank well staining.
as §1, with “for 1-2 days until they” for “overnight and had”, “confluency.” for “confluency at this point.”, “mL” for “ml”, “Initiation” for “Induction”, “media” for “medium”
Cells were incubated for 48 hours at 37° C., 5% CO2. 2 mL media was removed from each well, and replaced with 2 mL either positive control or experimental Adipogenesis Progression Media per well. Cells were again incubated for 48 hours at 37° C., 5% CO2. 2 mL of media was removed from each well and replaced with 2 mL Adipogenesis Maintenance Media per well. In addition, media was added to the empty wells reserved for blank well staining Cells were incubated for at least 48 hours at 37° C., 5% CO2. Media was replaced every 48-72 hours. Accumulation of intracellular lipid droplets continued for at least 5 days.
For quantification of Oil Red O staining, media was removed and cells were washed twice with PBS, using care to gently add the PBS. 0.5 mL Oil Red O solution was added per well of 24-well plate, including to the wells lacking cells, but containing media. Cells were incubated for 15 minutes at room temperature. The staining solution was then removed and wells were washed three times with 1 mL of phosphate buffered saline (PBS). In some experiments, following removal of the last wash, stained plates were scanned or photographed.
Adipogenesis was quantified using a spectrophotometer or fluorometer. 0.25 mL Dye Extraction Solution (isopropyl alcohol) was added per well, and the plate was set on an orbital shaker or platform rocker for 15-30 minutes. Extracted dye was transferred into a cuvette and absorbance was read in a spectrophotometer at visible range for oil red 0 or transferred to a 96-well plate and quantified in a plate reader.
For quantification of BODIPY dye uptake, media was removed and cells were washed twice with PBS, using care to gently add the PBS. Cells were then fixed in 3% paraformaldehyde, washed in PBS then incubated for 1 hour in the dark with the BODIPY solution, prepared in PBS. […]

[3] = tested on: mesenchymal stem cells or papillary fibroblasts; experiment: Adipogenesis by RHAMM antagonists in tissue culture and in vivo (summary statements)
Excerpt: We hypothesized that the fragment and the antibody were blocking RHAMM function by competitive inhibition and by direct binding/blocking of RHAMM, respectively. Using truncation analyses, the size of the peptide was further reduced to 32 amino acids ([…] (SEQ ID NO: 92)) and it was shown that adipogenic activity is localized to a 15 amino acid peptide (KLKDENSQLKSEVSK (SEQ ID NO: 2); “peptide B” or “B-1” herein) shown in FIG. 2. This peptide was chemically synthesized to use as a competitive blocker, and antibodies were prepared against this sequence tagged with keyhold lymphocyte hemacyanin (KLH) to directly bind/block RHAMM function.
The RHAMM sequence that contains adipogenic activity also contains the hyaluronan binding region of this protein.
All of these reagents can replace insulin in their ability to promote adipogenesis in mesenchymal stem cells or papillary fibroblasts.

2D human Pre-adipocytes = experiment: Adipogenic potential ranking in 2D tissue culture, human pre-adipocytes; type: cell-based; details: scale of 0-5, 5 highest
Protocol: (§2) Examples of the adipogenic effects of RHAMM antagonists (peptide B (SEQ ID NO: 2), peptide P15-1 (SEQ ID NO. 1), and the antibody to peptide B) are summarized in Table 1. Peptide P15-1, peptide B, and a RHAMM antibody were assayed for their effects on pre-adipocyte stem cells in culture and when injected into the dermis of aged rats. Reagents were ranked on a scale of 0-5 with 5 representing the highest possible score and a completely filled in Harvey ball. “2D” refers to two-dimensional tissue culture.

Rat skin = experiment: Rat dermal skin model of adipogenesis (injection into dermis); type: in vivo; details: injected into the dermis of aged rats; scale of 0-5, 5 highest
Protocol: as §2
In FIGS. 5A and 5B, data are shown as a ratio of the area (“surface area”) of fat pads expressed as a ratio of experimental/control values.
The 6-mer (KSEVSK; SEQ ID NO: 3) was tested for adipogenic effect in rat skin in vivo. The results of this testing are shown in the photographs in FIG. 10.

[4] = tested on: 2D rat Pre-adipocytes (rat mesenchymal stem cells); experiment: Adipogenic potential ranking in 2D tissue culture, rat pre-adipocytes; type: cell-based; details: ranked on a scale of 0-5 with 5 representing the highest possible score
Protocol: as §2

mesenchymal stem cell = experiment: Adipogenesis with commercially available mesenchymal stem cell kit; type: cell-based
Protocol: Ablation of RHAMM expression promotes adipogenesis (Tolg et al., 2006, J Cell Biol). A RHAMM carboxy-terminal sequence [^AA681LDAFEAEKQA LLNEHGATQEQLNKIRDSYAQLLGHQNLKQKIKHVVKLKDENSQLKSEVSKLRSQLVKRKQNELRLQGELDKALGIRHFDPSKAFCHASKENFTPLKEGNPNCC^aa794 (SEQ ID NO: 91)] was produced as a recombinant protein, and antibodies were prepared to this protein fragment.

## KSEVS
[1]
  adipogenic activity of pentamers: low level of adipogenic activity
  adipogenic activity relative to KSEVSK hexamer: much less active than the KSEVSK (SEQ ID NO: 3) hexamer

## STRMSR
[1]
  adipogenic activity, Oil Red O, fold change relative to negative control: weakly adipogenic
[2]
  adipogenic activity, Oil Red O, fold change relative to negative control: weakly adipogenic

## KLKDENS [fragment corresponding to one half of peptide B]
[2]
  adipogenic activity of truncation fragments: Only the SQLKSEVSK (SEQ ID NO: 44) fragment was found to be adipogenic

## STTMSR
[1]
  adipogenic activity, Oil Red O, fold change relative to negative control: weakly adipogenic
[2]
  adipogenic activity, Oil Red O, fold change relative to negative control: weakly adipogenic

## STMMSRSHKTRSHHV [peptide P15-1, reference compound]
[3]
  adipogenesis in tissue culture and in vivo: promotes adipogenesis in tissue culture and in vivo
2D human Pre-adipocytes
  adipogenic potential, 2D human Pre-adipocytes: 2
Rat skin
  adipogenic potential, In vivo Rat skin: 2
[4]
  adipogenic potential, 2D rat Pre-adipocytes (rat mesenchymal stem cells): 2

## STMMSRSHK
[2]
  adipogenic activity of truncation fragments: has adipogenic activity

## SIMMSR
[1]
  adipogenic activity, Oil Red O, fold change relative to negative control: weakly adipogenic
[2]
  adipogenic activity, Oil Red O, fold change relative to negative control: weakly adipogenic

## LKSEVSK
[1]
  Fold adipogenic induction vs. negative control: 3
  Specific activity (activity/1000 daltons): 3.39 activity/1000 daltons
[2]
  Fold adipogenic induction vs. negative control: 2
  Specific activity (activity/1000 daltons): 2.26 activity/1000 daltons
  adipogenic activity of truncation fragments: also found to be adipogenic

## SEVSK
[1]
  adipogenic activity of pentamers: low level of adipogenic activity
  adipogenic activity relative to KSEVSK hexamer: much less active than the KSEVSK (SEQ ID NO: 3) hexamer

## ASEVSA
[2]
  adipogenic activity, Oil Red O, fold change relative to negative control: significantly increased adipogenic activity as compared to both the negative control and the KSEVSK 6-mer

## STMMRSH
[1]
  adipogenic activity, Oil Red O, fold change relative to negative control: active at the 0.5 μg/ml concentration
[2]
  adipogenic activity, Oil Red O, fold change relative to negative control: significantly greater adipogenic activity than the negative control

## LSELEK
[1]
  adipogenic activity, Oil Red O, fold change relative to negative control: increased adipogenesis

## SQLKSEVSK
[1]
  Fold adipogenic induction vs. negative control: 3.0
  Specific activity (activity/1000 daltons): 2.64 activity/1000 daltons
[2]
  Fold adipogenic induction vs. negative control: 2.4
  Specific activity (activity/1000 daltons): 2.11 activity/1000 daltons
  adipogenic activity of truncation fragments: found to be adipogenic

B1: SEQ ID NO: 91: RHAMM carboxy-terminal sequence (aa681-aa794) produced as a recombinant protein (protein)
chain: LDAFEAEKQALLNEHGATQEQLNKIRDSYAQLLGHQNLKQKIKHVVKLKDENSQLKSEVSKLRSQLVKRKQNELRLQGELDKALGIRHFDPSKAFCHASKENFTPLKEGNPNCC
Mesenchymal stem cell
  adipogenesis: promoted adipogenesis
